# Laboratory results reported in DBAASP.
# Columns and labels:
# Assay in all cases: ≥ marks a high value that may be exact or a test limit, other limits are often not marked, values filed in µg/mL are converted to µM
# [1] = tested on: Neisseria gonorrhoeae ATCC 49226
# [2] = tested on: Staphylococcus aureus ATCC 43330
# [3] = tested on: Staphylococcus epidermidis ATCC 12228
# [4] = tested on: Micrococcus luteus ATCC 49732
# [5] = tested on: Streptococcus agalactiae ATCC 12386
# [6] = tested on: Staphylococcus aureus ATCC 25923
# [7] = tested on: Klebsiella pneumoniae ATCC 700603
# [8] = tested on: Proteus vulgaris ATCC 49132
# [9] = tested on: Salmonella enterica subsp. enterica serovar Typhimurium ATCC 14028
# Serratia sp. ATCC 39006 = tested on: Serratia sp. ATCC 39006
# [10] = tested on: Enterococcus faecalis ATCC 29212
# [11] = tested on: Escherichia coli ATCC 25922
# [12] = tested on: Shigella sonnei ATCC 25931
# [13] = tested on: Staphylococcus saprophyticus ATCC 15305
# Escherichia coli BL21 = tested on: Escherichia coli BL21
# [14] = tested on: Bacillus subtilis ISW 1214
# [15] = tested on: Enterococcus faecium CGMCC 1.2334
# [16] = tested on: Enterococcus faecalis CGMCC 1.595
# [17] = tested on: Staphylococcus epidermidis
# [18] = tested on: Proteus mirabilis CICC 22931
# [19] = tested on: Staphylococcus aureus AS1.72
# [20] = tested on: Pseudomonas aeruginosa 0108
# [21] = tested on: Klebsiella pneumoniae subsp. pneumoniae CGMCC 1.176
# [22] = tested on: Staphylococcus epidermidis CICC 23664
# Escherichia coli AS1.349 = tested on: Escherichia coli AS1.349
# [23] = tested on: Enterobacter cloacae CGMCC 1.58
# Bacillus cereus AS1.126 = tested on: Bacillus cereus AS1.126
# [24] = tested on: Pseudomonas aeruginosa CGMCC 1.860
smiles,measurement,setting,value
CC[C@H](C)[C@H](NC(=O)CNC(=O)[C@H](C)NC(=O)[C@H](C)NC(=O)[C@@H](NC(=O)[C@@H](NC(=O)[C@H](CC(N)=O)NC(=O)[C@@H](NC(=O)[C@H](C)NC(=O)[C@@H](NC(=O)[C@@H]1CCCN1C(=O)[C@@H](NC(=O)[C@H](CC(C)C)NC(=O)[C@@H]1CCCN1C(=O)[C@H](Cc1c[nH]c2ccccc12)NC(=O)[C@H](Cc1ccccc1)NC(=O)[C@H](CCCN=C(N)N)NC(=O)[C@H](CCCCN)NC(=O)[C@@H](NC(=O)[C@@H](N)CCCN=C(N)N)C(C)C)C(C)C)C(C)C)[C@@H](C)CC)[C@@H](C)O)C(C)C)C(=O)N[C@@H](CC(N)=O)C(=O)N[C@@H](CC(C)C)C(=O)N[C@@H](Cc1ccc(O)cc1)C(=O)N[C@@H](CCCCN)C(=O)N[C@@H](C)C(=O)N[C@H](C(=O)N[C@@H](CCCN=C(N)N)C(=O)N[C@@H](CCCN=C(N)N)C(=O)N[C@@H](CCCCN)C(N)=O)[C@@H](C)CC [RVKRFWPLVPVAINTVAAGINLYKAIRRK],MIC,[1],2.49 µM
same,MIC,[2],3.73 µM
same,MIC,[3],2.49 µM
same,MIC,[4],0.63 µM
same,MIC,[5],1.4 µM
same,MIC,[6],1.22 µM
same,MIC,[7],2.15 µM
same,MIC,[8],2.49 µM
same,MIC,[9],2.15 µM
same,MIC,Serratia sp. ATCC 39006,0.63 µM
same,MIC,[10],0.934 µM
same,MIC,[11],0.934 µM
same,MIC,[12],0.537 µM
same,MIC,[13],1.22 µM
CC(=O)NCC(=O)N[C@@H](Cc1c[nH]c2ccccc12)C(=O)N[C@@H](CCC(N)=O)C(=O)N[C@@H](CC(C)C)C(=O)N[C@@H](CC(C)C)C(=O)N[C@@H](C)C(=O)N[C@@H](CC(C)C)C(=O)N[C@@H](Cc1cnc[nH]1)C(=O)N[C@@H](CC(C)C)C(=O)N[C@@H](CCC(N)=O)C(=O)N[C@@H](CC(C)C)C(=O)N[C@@H](CC(C)C)C(=O)NCC(=O)N[C@@H](CC(C)C)C(=O)N[C@@H](Cc1cnc[nH]1)C(=O)N[C@@H](CC(C)C)C(=O)N[C@@H](CC(C)C)C(=O)N[C@@H](CCC(N)=O)C(=O)N[C@@H](CC(C)C)C(=O)N[C@@H](C)C(=O)N[C@@H](CC(C)C)C(=O)N[C@@H](CC(C)C)C(=O)N[C@@H](CCC(N)=O)C(=O)N[C@@H](CCCN=C(N)N)C(=O)N[C@@H](CCCN=C(N)N)C(=O)N[C@@H](CCCN=C(N)N)C(N)=O [GWQLLALHLQLLGLHLLQLALLQRRR],MIC,Escherichia coli BL21,≥ 160 µM
same,MIC,[14],≥ 160 µM
CC[C@H](C)[C@H](NC(=O)[C@H](CCCCN)NC(=O)[C@H](CO)NC(=O)[C@H](Cc1c[nH]c2ccccc12)NC(=O)[C@@H](NC(=O)[C@H](CCCCN)NC(=O)[C@H](CCCCN)NC(=O)[C@@H](N)Cc1c[nH]c2ccccc12)[C@@H](C)CC)C(=O)N[C@@H](CCCCN)C(=O)N[C@@H](CCCCN)C(=O)N[C@@H](CC(C)C)C(=O)N[C@@H](CC(C)C)C(=O)N[C@@H](CCCCN)C(N)=O [WKKIWSKIKKLLK],MIC,[15],3.13 µM
same,MIC,[16],1.56 µM
same,MIC,[17],3.12 µM
same,MIC,[18],6.25 µM
same,MIC,[19],3.13 µM
same,MIC,[20],12.5 µM
same,MIC,[21],25 µM
same,MIC,[22],1.56 µM
same,MIC,Escherichia coli AS1.349,6.25 µM
same,MIC,[23],3.13 µM
same,MIC,Bacillus cereus AS1.126,3.13 µM
same,MIC,[24],6.25 µM
